In patent US5053006A, “Method for the permanent occlusion of arteries” (priority 1990, dated 1991):
Several values for one entry are separate records, joined by “and”; a condition that tells them apart may be missing. Identical values can stand only once.

Assays:
corneal cholesterol = test: Corneal cholesterol content after photothrombosis (Example 6); format: in vivo, New Zealand white rabbit; details: for Corneal Cholesterol Concentration, Difference Between Treated and Untreated Eyes / Corneal Cholesterol Concentration, Difference Between Treated and Untreated Eyes, %: individual rabbit
Text: Nine New Zealand white strain rabbits weighting 1 to 2 kg were rendered hypercholesterolemic by foods that contained high levels of cholesterol, as described in Stock et. al., Arch. Ophthalmol., 103:726-730, 1985; and Mendelsohn et al., Ophthalmic Surg., 17:502-508, 1986. Eight days after commencement of the high-cholesterol diet, corneal sutures were implanted in both eyes according to the surgical procedure described in Mendelsohn et al., Ophthalmic Surg., 17:502-508, 1986.
On day 22, slit-lamp photographs and fluorescein angiograms were obtained of all corneas (Mendelsohn et al., Arch. Ophthalmol., 105:983-988, 1987, the disclosure of which is hereby incorporated by reference and relied upon). On the next day, one eye of each rabbit underwent laser surgery, with the other eye serving as a comparative control. Rose bengal dye was dissolved at a concentration of 30 mg/ml in 0.9% saline solution. For the initial injection, the dye solution was administered at a total body concentration of 45 mg/kg. For the two animals in which the procedure took longer than 25 minutes, a booster injection of 15 mg/kg was administered. Irradiations of corneal vessels were carried out with an argon ion laser (Model 95, Cooper Laser-Sonica, Sunnyvale, Calif.) operated in the TEM00 mode at 514.5 nm. The beam was directed toward an aluminized mechanical shutter (AW Vincent Associates, Rochester, NY), which reflected it at a right angle through a 514.5-nm custom interference filter with a transmittance of 92% (Omega Optical, Brattleboro, VT) and then through a fused silica lens with a focal length of 7.5 cm for focusing into a 2.5-m fiberoptic cable 400 μm in diameter. In the optical fiber, the gaussian input beam profile was converted into an output beam. The output was collimated by a plano convex lens 3.5 cm in focal length and focused with a plano convex lens with a focal length of 1.0 cm. The lenses were mounted in a beam telescope attached to an X-Y positioning device (Daedal Inc., Harrison City, Pa.). The beam diameter was measured with a calibrated reticle in the ocular of a ×20 operating microscope. By observing, through a 514.5-nm rejection filter, the fluorescence of a white card impregnated with rhodamine B, the minimum diameter of the organe fluorescent spot at the focal point was determined to be 63 μm. Combining the transmission efficiencies of the three uncoated lenses (92% per lens, 76% total transmission) with those of the optical fiber and interference filter yielded a system transmission efficiency of 61.5%. This reduced the incident power level of the laser from 215 mW to an effective power level of 132 mW; this corresponded to an incident intensity at the focal point of 4.23 kW/cm^2 . During shutter closure, irradiations were carried out in 0.2-s intervals. When the shutter was opened, the low-power beam, which was reflected off an optical flat and through the optical system, was used for aligning the next vessel selected for irradiation.
One eye of each rabbit was subjected to laser applications that were directed toward the vascular branching points of the limbal and corneal feeder vessels adjacent to the sites of lipid deposits. […] Initially, the irradiated segment appeared yellow-orange because the fluorescence of rose bengal had been absorbed into erythrocyte plasma membranes and plasma proteins. As platelets accumulated, the fluorescence became yellowish and less intense. […]

Factor VIII = test: Immunofluorescence study of thrombus composition, Factor VIII; parameters: species or system rat
Experimental: Following incubation with primary antibody for one hour, FITC-conjugated goat anti-mouse IgG and goat anti-mouse IgG antibodies (Sigma Chemical Co., St. Louis, Mo.) were used as secondary antibodies for anti-fibrinogen and anti-Factor VIII, respectively. The sections were observed by epi-illumination with a Nikon Microphot-FX microscope.

[1] = rabbit, in vivo
Experimental: In order to investigate possible systemic side effects of rose bengal, the blood chemistry profiles of healthy rabbits before and after intravenous injection of rose bengal were studied. Four practical dosages, i.e., 40, 16, 8 and 4 mg/kg bw, were administered. Five rabbits were used for each dosage except for the dosage of 40 mg/kg bw, in which case ten rabbits were used. Three blood samples (3 ml each) were collected from each rabbit before injection with rose bengal, and one and five days following injection.

[2] = rat, in vivo; cited from earlier work

## O=C([O-])c1c(Cl)c(Cl)c(Cl)c(Cl)c1-c1c2cc(I)c(=O)c(I)c-2oc2c(I)c([O-])c(I)cc12.[Na+].[Na+] [rose bengal]
Corneal cholesterol; 45 mg/kg
  Corneal Cholesterol Concentration, Difference Between Treated and Untreated Eyes: 0.144 g of Cholesterol/100 g of Corn and 0.007 g of Cholesterol/100 g of Corn and 0.076 g of Cholesterol/100 g of Corn and 0.149 g of Cholesterol/100 g of Corn and 0.105 g of Cholesterol/100 g of Corn and 0.129 g of Cholesterol/100 g of Corn and 0.058 g of Cholesterol/100 g of Corn
  Corneal Cholesterol Concentration, Difference Between Treated and Untreated Eyes, %: -36.5% and -2.5% and -24.3% and -41.7% and -29.1% and -42.0% and -21.9%
Corneal cholesterol; 60 mg/kg (45 plus booster 15)
  Corneal Cholesterol Concentration, Difference Between Treated and Untreated Eyes: 0.219 g of Cholesterol/100 g of Corn and 0.206 g of Cholesterol/100 g of Corn
  Corneal Cholesterol Concentration, Difference Between Treated and Untreated Eyes, %: -58.6% and -51.8%
Corneal cholesterol; laser-treated vs control eyes
  average reduction of corneal cholesterol content: 36%
Factor VIII
  Factor VIII in photoinduced MCA thrombi: abundance
[1]
  external examination, discoloration: slightly pinkish discoloration of the mucosal surfaces
  lethargy or change of appetite: Neither lethargy nor change of appetite was noted
[1]; 40 mg/kg
  blood chemistry overall: within the normal range except for a small number in the group that received the highest dosage
[1]; iv
  long-term systemic toxicity: does not result in long-term systemic toxicity
[2]
  half-life in blood: two
